Test results taken from patent publication US20070093449A1, “Novel IV formulation of tipifarnib” (priority 2005, published 2007).
Read-outs that look alike come from different tables or passages of the source.

Experiments:
[1] = Plasma pharmacokinetics of tipifarnib after oral, 2-hour i.v. and continuous i.v. administration in cancer patients; type: in vivo, human; conditions: for systemic exposure (AUC0-10h) lower relative to 200 mg oral dose: Day 4, cohort 1 (3 subjects); for systemic exposure lower relative to 200 mg oral dose: cohort 2 (3 subjects); for bioavailability: oral, dose-normalized AUC0-10h, fed, read-out: mean absolute bioavailability of the oral tablet; for bioavailability / Tmax: 200 mg; for Tmax: po
Description: The objective of the first (dose-determination) phase of the study was to identify an intravenous regimen that was well tolerated. It was expected that this regimen would be equivalent to 50% -60% of a clinically relevant oral dose (200 mg), based on a prior pilot determination of absolute bioavailability in healthy male volunteers. A first cohort of 3 subjects received the following uninterrupted 4-day consecutive treatments of tipifarnib: 30 mg as a 2-hour intravenous infusion b.i.d. on Day 1-4, followed by 200 mg as oral administration b.i.d. on Day 5-8, followed by 60 mg per day as a continuous intravenous infusion on Day 9-12. Similarly, a second cohort of 3 subjects received similar 4-day regimens of tipifarnib: 60 mg as a 2-hour intravenous infusion b.i.d., followed by 200 mg as oral administration b.i.d., followed by 120 mg per day as a continuous intravenous infusion. There was no washout period between each of the 4-day oral or i.v. treatments described.
The second (i.v.-oral bridging) phase of the study was completed in separate group of patients. Systemic exposure to tipifarnib following the selected 2-hour and continuous intravenous regimens (from the previous dose-determination phase) was compared to exposure after a 200-mg b.i.d. oral regimen. The bridging phase was initiated when at least 2 subjects of the second cohort of the dose-determination phase were observed without DLT until Day 21. A total of 24 subjects were randomly assigned in a 1:1 ratio to one of two treatment sequences at the chosen intravenous regimens, in order to account for potential sequence-effects.
Sequence 1: 100 mg b.i.d. administered as a 2-hour intravenous infusion on Days 1-4, followed by 200 mg oral tablets b.i.d. on Days 5-8, then 200 mg/day administered as a continuous 4-day intravenous infusion on Days 9-12.
Sequence 2: 200 mg/day administered as a continuous 4-day intravenous infusion on Days 1-4, followed by 200 mg oral tablets b.i.d. on Days 5-8, then 100 mg b.i.d. administered as a 2-hour intravenous infusion on Days 9-12.
In both the dose-determination and the bridging phases, pharmacokinetic sampling was performed during a 10-hour period from the start of the morning dose on Day 4 of each treatment. Whole blood samples were taken immediately before, and 0.5, 1, 2, 3, 4, 6, 8, and 10 hours after oral administration. For 2-hour intravenous infusion, blood samples were taken immediately before, and 1, 2 (i.e. just before the end of the infusion), 2.25, 3, 4, 6, 8, and 10 hours after dosing. Blood samples were taken immediately before, and 2, 4, 6, 8, and 10 hours after the start of the continuous intravenous infusion.
A minimum of 7 mL of blood for each PK sample was collected. Whole blood samples were immediately placed on ice and centrifuged within 2 hours after collection (10 min, 1000×g). Separated plasma was frozen immediately at ≦−18° C. until assayed.
Plasma samples were thawed at room temperature, and individual sample was analyzed for tipifarnib using a previous published method. To 1-ml aliquots of human plasma, 200 ng of the internal standard (R121550, a structural analog) was spiked. After adding 1 ml of NaOH (0.1M), the samples were extracted twice with 4 ml of heptane containing 10% of isoamylalcohol. The combined organic phases were back-extracted with 2 ml of HCl (2M). After alkalization with concentrated ammonia, the aqueous phase was extracted once with 5 ml of heptane containing 5% of isoamylalcohol. This extract was evaporated under nitrogen at 65° C. and the residue dissolved in 100 microliters of injection solvent (Ammoniumacetate 0.01M/acetonitile/methanol; 50/25/25). A 15 μl extract was injected into an HPLC with UV detection (Agilent) at a wavelength of 240 nm. Separation was performed on a 10 cm×4.6 mm chromatographic column, packed with 3 μm C 18 BDS-Hypersil (Alltech). […]

plasma proteins [2] = test: Tipifarnib protein binding analysis, equilibrium dialysis of patient plasma (ex vivo); type: in vitro ADME, human
Description: Tipifarnib was specifically labeled with [^14C] at the asymmetric carbon atom. A 7-mL blood sample was taken from 24 patients at 4 hours after the start of the continuous intravenous infusion of tipifarnib on Day 4. The plasma samples were fortified with [^14C]-tipifarnib at 500 ng/ml. The fortified plasma samples were subjected to equilibrium dialysis against a 0.067 M phosphate buffer, pH 7.17 at 37° C. for 4 hours in a Dianorm system with identical macro-1 Teflon cells and Diachema 10.17 dialysis membranes (MW cut-off 10,000). Radioactivity levels were measured in duplicate 100-μl aliquots of the fortified plasma before and after equilibrium dialysis, and in 1000-μl duplicate aliquots of the contents of buffer compartments of the dialysis cells admixed with methanol after dialysis in a Packard Tri-Carb 1900 TR liquid scintillation spectrometer. The total protein concentration was determined with a colorimetric biureet method, kit Roche Diagnostics 1929917. The albumin concentration was determined with a colorimetric bromocresol green method kit Roche Diagnostics 1970909. The α1-acid glycoprotein concentration was determined with an immuno-turbidimetric method, kit Roche Diagnostics 1557602. All these tests were performed on a Roche Hitachi Modular analyser. […]

plasma proteins [3] = test: In vitro plasma protein binding, plasma from 5 healthy men; type: in vitro ADME, human
Source text: The value of the plasma protein binding of tipifarnib from the ex vivo measurement on cancer subjects in this trial is very close to that (99.22% bound) obtained from an in vitro experiment with the plasma samples from 5 healthy men. […]

[4] = Clinical assessment: toxicity (CTC version 2.0), dose-limiting toxicity; type: in vivo, human
Source text: The second and third subjects in the cohort were to be started only when the first subject completed the first intravenous and the oral treatment (i.e., 8-day period) without a dose-limiting toxicity (DLT). If a DLT occurred in 1 of 3 subjects of either the first or the second cohort, 3 supplementary subjects were to be added to that cohort. If more than 1 subject experienced DLT (either in the first 3 subjects or in the extended cohort of 6 subjects), dose escalation was to be terminated, and other subjects in that cohort had to complete their therapy at the same dose.
(§1) Complete patient history was taken, and a physical examination (including vital signs), hematological tests, and clinical chemistry tests were performed at baseline and during treatment. To assess cardiovascular safety, twelve-lead E.C.G.s were recorded at screening, during Cycle 1 and at the end of therapy. Although objective tumor response was not the primary objective of this study, an attempt was made to obtain appropriate measurements to assess response. All adverse events and clinically relevant laboratory abnormalities were graded according to Common Toxicity Criteria (CTC version 2.0)

advanced solid tumor = test: Clinical assessment: efficacy / tumor response; type: in vivo, human
Description: as §1

[5] = Solubility and hydrolytic stability of tipifarnib in water; type: physicochemical
Description: Tipifarnib is a base with very good water solubility at acidic pH. It hydrolyzes to R110127, wherein the amine functionality is replaced by a hydroxy functionality. […] R110127 has the following structure: [drawing 2]
[…] is added to Formulation 1 to solubilize tipifarnib when it is reconstituted with Formulation 2. The pH value of the reconstituted solution is ˜4.5. At this pH value tipifarnib precipitates if no Hydroxypropyl-β-cyclodextrin is present. The risk of local irritation during infusion into a peripheral vein (arm) is at an acceptable level at this pH value.

[6] = oral 50- to 500-mg b.i.d.; cited from earlier work
[7] = cited from earlier work
[8] = oral administration, cited from earlier work
[9] = target: human farnesyltransferase (FTase) (Homo sapiens, UniProt P49354+P49356); conditions: in vitro and in vivo; cited from earlier work
human hepatocytes = conditions: in vitro; cited from earlier work
CYP3A4 = CYP3A4 (Homo sapiens, UniProt P08684); conditions: compared to CYP2C19, CYP2A6, CYP2D6, CYP2C8/9/10; cited from earlier work
CYP3A4, sequence (P08684 whole entry, the tested form may be a part): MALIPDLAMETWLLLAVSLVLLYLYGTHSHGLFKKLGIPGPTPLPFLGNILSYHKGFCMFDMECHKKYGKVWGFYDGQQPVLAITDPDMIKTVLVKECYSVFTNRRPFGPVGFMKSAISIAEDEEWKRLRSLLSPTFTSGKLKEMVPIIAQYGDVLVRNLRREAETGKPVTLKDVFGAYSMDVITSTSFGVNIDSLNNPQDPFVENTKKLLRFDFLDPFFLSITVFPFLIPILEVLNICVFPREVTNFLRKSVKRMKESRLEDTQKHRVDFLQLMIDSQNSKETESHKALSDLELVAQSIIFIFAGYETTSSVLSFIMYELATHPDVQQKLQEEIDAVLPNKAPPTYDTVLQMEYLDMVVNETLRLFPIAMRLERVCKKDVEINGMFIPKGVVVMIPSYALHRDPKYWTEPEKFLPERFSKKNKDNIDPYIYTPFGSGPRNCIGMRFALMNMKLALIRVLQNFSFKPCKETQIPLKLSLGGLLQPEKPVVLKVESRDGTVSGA

[10] = 2-hour i.v. infusion 100 mg b.i.d. versus oral 200 mg b.i.d.

Cn1cncc1[C@@](N)(c1ccc(Cl)cc1)c1ccc2c(c1)c(-c1cccc(Cl)c1)cc(=O)n2C [tipifarnib]
systemic exposure (AUC0-10h) lower relative to 200 mg oral dose ([1]; 30 mg b.i.d. 2-hour intravenous infusion): approximately 64%
systemic exposure lower relative to 200 mg oral dose ([1]; 60 mg b.i.d. 2-hour intravenous infusion): approximately 47%
systemic exposure (AUC0-10h) lower relative to 200 mg oral dose ([1]; 60 mg per day continuous intravenous infusion): ~59%
systemic exposure lower relative to 200 mg oral dose ([1]; 120 mg per day continuous infusion): ~46%
AUC0-10h higher than after oral administration [1, 10]: 19.3%
Cmax higher than after oral administration [1, 10]: 48.0%
bioavailability ([1]; human, plasma, oral versus 2-hour i.v.): 46.3%
bioavailability ([1]; human, plasma, oral versus continuous intravenous infusion): 40.9%
Tmax ([1]; human, plasma, oral 200 mg b.i.d. for 4 days, read-out: time of maximum plasma concentration (tmax)): ~2 h
Tmax ([1]; human, plasma, oral 200 mg b.i.d., 29 subjects, read-out: range of tmax): 0.5 to 3 h
AUC(0-t) ([1]; human, plasma, oral 200 mg b.i.d., 2-hour i.v. 100 mg b.i.d., continuous i.v. 200 mg/day, read-out: range of mean AUC0-10h values across the 3 treatments): 3990 to 4490 ng·h/mL
AUC(0-t) ([1]; human, plasma, oral 200 mg b.i.d., Day 4, n=24, read-out: arithmetic mean AUC0-10h (±SD)): 3990 ± 1670 ng·h/mL
Cmax ([1]; human, plasma, oral 200 mg b.i.d., Day 4, n=24, read-out: arithmetic mean Cmax (±SD)): 994 ± 487 ng/mL
arithmetic mean AUC0-10h (±SD) ([1]; oral 200 mg b.i.d., Day 4, n=24): 3990 ng·h/mL
mean free (unbound) fraction (plasma proteins [2]; plasma drawn 4 hours after start of continuous i.v. infusion, Day 4): 0.62%
dependence of unbound fraction on total drug plasma concentration (plasma proteins [2]; range 211 ng/mL to 812 ng/mL): independent of total drug plasma concentration
fraction unbound at 4 h, 1000 ng/mL (plasma proteins [3]; male, human, pH 7.17, blank plasma fortified with 14C-tipifarnib at 1000 ng/mL, read-out: plasma protein binding (bound) (converted)): 0.0078
dependence of in vitro plasma protein binding on total tipifarnib concentration (plasma proteins [3]; range 100 to 5000 ng/mL): independent of the total tipifarnib concentrations
febrile neutropenia, subjects ([4]; 1 subject): 3%
Grade 3 or 4 drug-related neutropenia, patients ([4]; 9/30 patients): 30%
phlebitis ([4]; IV bolus via peripheral venous access, not observed via central vein): 3 subjects
dose limiting toxicity ([4]; cohort 1: 30 mg b.i.d. 2-hour i.v., 60 mg per day continuous i.v.): No dose limiting toxicity
dose limiting toxicity (DLT) ([4]; cohort 2: 60 mg b.i.d. 2-hour i.v., 120 mg per day continuous i.v.): no DLT was observed
adverse events associated with intravenous administration ([4]; intravenous tipifarnib): No unusual adverse events
drug-related anorexia ([4]; mainly grade 1): 20%
drug-related diarrhea ([4]; mainly grade 1): 13%
drug-related fatigue ([4]; mainly grade 1): 60%
drug-related nausea ([4]; mainly grade 1): 40%
drug-related vomiting ([4]; mainly grade 1): 17%
objective tumor responses (advanced solid tumor; 31 subjects evaluable): No objective tumor responses were observed
stable disease for at least 6 months (advanced solid tumor; 31 subjects evaluable): 14 subjects
duration of hematological improvement (durable increase in hemoglobin) (advanced solid tumor; one subject with MDS): 8 months
water solubility ([5]; acidic pH): very good
rate of hydrolytic degradation to R110127 ([5]; aqueous): lowest at acidic condition but still very fast
solubility in reconstituted solution ([5]; pH ~4.5, without hydroxypropyl-β-cyclodextrin): precipitates
peak concentration range [6]: 68 to 1458 ng/mL
mean AUC0-10h ([7]; 150 mg orally twice daily): 2495 ng·h/mL
mean Cmax ([7]; 150 mg orally twice daily): 443 ng/mL
mean AUC0-10h ([7]; 300 mg orally twice daily): 4674 ng·h/mL
mean Cmax ([7]; 300 mg orally twice daily): 974 ng/mL
concentrations of unchanged tipifarnib lower than total radioactivity concentrations ([8]; deproteinized samples): approximately 8 times
concentrations of unchanged tipifarnib lower than total radioactivity concentrations ([8]; nonprecipitated samples): 42 times
oral dose recovered in faeces as tipifarnib [8]: less than 7%
unchanged drug excreted in the urine [8]: No unchanged drug was excreted in the urine
inhibition of human farnesyltransferase (FTase) [9]: potent and selective nonpeptidomimetic competitive inhibitor
metabolism in human hepatocytes (human hepatocytes): undergoes direct glucoronidation
CYP450 metabolic pathway (CYP3A4): CYP3A4 was a predominant metabolic pathway
